# Experimental data published in US20250145665A1, “MACROCYCLIC PEPTIDES USEFUL AS MODULATORS OF TNF ALPHA” (Bristol-Myers Squibb Company, priority 2023, published 2025).
# Starred links: 1 amine or outer side, 2 acyl side, 3 side chain; linkers in the order of their positions; H or OH if unused. Positions of bridges follow the written chain, without caps; N, C: chain ends. Non-standard residues stand in square brackets, D forms with d. Residues, ends and D or L forms follow the SMILES beside them. ξ: configuration not given here. *: point of attachment. Bip(4'-NHCO-C6H4-3-CH2COOH) = N[C@@H](Cc1ccc(-c2ccc(NC(=O)c3cccc(CC(=O)O)c3)cc2)cc1)C(=O)O; X5 = Cn1nc(C(=O)Nc2ccc(-c3ccc(C[C@H](N[*:1])C(=O)[*:2])cc3)cc2)c2ccccc21; dArg(Nω-CH2C6H4-3-CH2Gua) = N=C(N)NCc1cccc(CNC(=N)NCCC[C@@H](N)C(=O)O)c1; Bip(4'-NH) = O=C([C@H](Cc1ccc(-c2ccc(N[*:3])cc2)cc1)N[*:1])[*:2]; Bip(4'-CONHMe) = CNC(=O)c1ccc(-c2ccc(C[C@H](N)C(=O)O)cc2)cc1; Indazole3carbonyl(1-CH2COOH) = O=C(O)Cn1nc(C(=O)*)c2ccccc21; Bip(4'-COOH) = N[C@@H](Cc1ccc(-c2ccc(C(=O)O)cc2)cc1)C(=O)O; Bip(4'-NHAc) = CC(=O)Nc1ccc(-c2ccc(C[C@H](N)C(=O)O)cc2)cc1; Trp(1-CH2COOH) = N[C@@H](Cc1cn(CC(=O)O)c2ccccc12)C(=O)O; X8 = N=C(NCCC[C@@H](N[*:1])C(=O)[*:2])NCCc1ccc(CN)cc1; Ala(imidazol-2-yl) = N[C@@H](Cc1ncc[nH]1)C(=O)O; Ala(morpholin-4-yl) = N[C@@H](CN1CCOCC1)C(=O)O; Phe(3-CONH2) = NC(=O)c1cccc(C[C@H](N)C(=O)O)c1; X12 = N=C(NCCO)NCCC[C@@H](N[*:1])C(=O)[*:2]; Bip = N[C@@H](Cc1ccc(-c2ccccc2)cc1)C(=O)O; 2Pal = N[C@@H](Cc1ccccn1)C(=O)O; Cha = N[C@@H](CC1CCCCC1)C(=O)O; Aze = O=C(O)[C@@H]1CCN1; ξP = O=C(O)C1CCCN1; Sar = CNCC(=O)O
# Biological target: TNFα (Homo sapiens, UniProt P01375)
# Test: TNF-Induced HEK-Blue Assay
# Assay type: cell-based
# Conditions: not given
# Chain of TNFα (P01375 77-233 limits assumed): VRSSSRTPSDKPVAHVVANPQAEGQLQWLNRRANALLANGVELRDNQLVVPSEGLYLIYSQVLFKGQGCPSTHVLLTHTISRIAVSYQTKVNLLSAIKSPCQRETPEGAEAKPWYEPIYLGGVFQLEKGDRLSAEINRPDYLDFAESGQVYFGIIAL
row,Compound,IC50 [nM]
1,CC(C)C[C@@H]1NC(=O)[C@H](Cc2ncc[nH]2)NC(=O)[C@H](C(C)C)NC(=O)[C@@H]2CCCN2C(=O)[C@H](C(C)C)NC(=O)[C@@H](CCCNC(=N)NCc2cccc(CNC(=N)N)c2)NC(=O)[C@H](CC(=O)O)NC(=O)[C@H](Cc2ccccn2)NC(=O)CN(C)C(=O)[C@H](Cc2ccc(-c3ccc(NC(=O)c4nn(CC(=O)O)c5ccccc45)cc3)cc2)NC(=O)[C@H](Cc2ccc(-c3ccc(C(=O)O)cc3)cc2)NC(=O)[C@H](CC2CCCCC2)NC(=O)CSC[C@@H](C(=O)NCC(N)=O)NC1=O [Example 556] ({CH2CO}-[Cha][Bip(4'-COOH)][Bip(4'-NH)](Indazole3carbonyl(1-CH2COOH))[Sar][2Pal]D[dArg(Nω-CH2C6H4-3-CH2Gua)]VPV[Ala(imidazol-2-yl)]LCG-NH2; thioether N-13),< 50
2,CNC(=O)c1ccc(-c2ccc(C[C@@H]3NC(=O)[C@H](CN4CCOCC4)NC(=O)CSC[C@@H](C(=O)NCC(N)=O)NC(=O)[C@H](CC(C)C)NC(=O)[C@H](CCCNC(=N)N)NC(=O)[C@H](C(C)C)NC(=O)[C@@H]4CCCN4C(=O)[C@H](C(C)C)NC(=O)[C@@H](CCCNC(=N)NCCc4ccc(CN)cc4)NC(=O)[C@H](CC(=O)O)NC(=O)[C@@H]4CCCN4C(=O)CN(C)C(=O)[C@H](Cc4ccc(-c5ccc(NC(=O)c6nn(CC(=O)O)c7ccccc67)cc5)cc4)NC3=O)cc2)cc1 [Example 431] ({CH2CO}-[Ala(morpholin-4-yl)][Bip(4'-CONHMe)][Bip(4'-NH)](Indazole3carbonyl(1-CH2COOH))[Sar]PD[X8]VPVRLCG-NH2; thioether N-13),50 to 200

# Same assay, conditions: HEK-Blue-CD40L cells, NF-kB-driven secreted alkaline phosphatase reporter; TNFα 0.5 ng/ml; 18 h; read-out: TNF induced HEK-Blue assay IC50 value
row,IC50 [nM],Compound
1,< 50,CC[C@H](C)[C@@H]1NC(=O)[C@@H](CCCNC(=N)N)NC(=O)[C@H](CC(=O)O)NC(=O)[C@H](Cc2cnc[nH]2)NC(=O)CN(C)C(=O)[C@H](Cc2ccc(-c3ccc(NC(=O)c4cccc(CC(=O)O)c4)cc3)cc2)NC(=O)[C@H](Cc2ccc(-c3ccc(C(=O)O)cc3)cc2)NC(=O)[C@H](CC2CCCCC2)NC(=O)CSC[C@@H](C(=O)NCC(N)=O)NC(=O)[C@H](CC(C)C)NC(=O)[C@H](Cc2cccc(C(N)=O)c2)NC(=O)[C@H](C(C)C)NC(=O)[C@@H]2CCCN2C1=O [Example 588] ({CH2CO}-[Cha][Bip(4'-COOH)][Bip(4'-NHCO-C6H4-3-CH2COOH)][Sar]HD[dR]IPV[Phe(3-CONH2)]LCG-NH2; thioether N-13)
2,200 to 2000,CC(C)C[C@@H]1NC(=O)[C@H](CCCNC(=N)N)NC(=O)[C@H](C(C)C)NC(=O)[C@@H]2CCCN2C(=O)[C@H](C(C)C)NC(=O)[C@H](CCCNC(=N)N)NC(=O)[C@H](CC(=O)O)NC(=O)[C@@H]2CCCN2C(=O)CN(C)C(=O)[C@H](Cc2ccc(-c3ccccc3)cc2)NC(=O)[C@H](Cc2ccc(-c3ccccc3)cc2)NC(=O)[C@H](Cc2ccc(O)cc2)NC(=O)CSC[C@@H](C(=O)NCC(N)=O)NC1=O [Example 4] ({CH2CO}-Y[Bip][Bip][Sar]PDRVPVRLCG-NH2; thioether N-13)
3,50 to 200,CC[C@H](C)[C@@H]1NC(=O)[C@@H](CCCNC(=N)N)NC(=O)[C@H](CC(=O)O)NC(=O)[C@H](Cc2cnc[nH]2)NC(=O)CN(C)C(=O)[C@H](Cc2ccc(-c3ccc(NC(=O)[C@@H](N)Cc4cn(CC(=O)O)c5ccccc45)cc3)cc2)NC(=O)[C@H](Cc2ccc(-c3ccccc3)cc2)NC(=O)[C@H](CC2CCCCC2)NC(=O)CSC[C@@H](C(=O)NCC(N)=O)NC(=O)[C@H](CC(C)C)NC(=O)[C@H](Cc2ncc[nH]2)NC(=O)[C@H](C(C)C)NC(=O)C2CCCN2C1=O (stereo partly shown) [Example 420] ({CH2CO}-[Cha][Bip][Bip(4'-NH)](Trp(1-CH2COOH))[Sar]HD[dR]I[ξP]V[Ala(imidazol-2-yl)]LCG-NH2; thioether N-13)
4,50 to 200,CC(=O)Nc1ccc(-c2ccc(C[C@@H]3NC(=O)[C@H](Cc4ccc(-c5ccccc5)cc4)NC(=O)[C@H](CN4CCOCC4)NC(=O)CSC[C@@H](C(=O)NCC(N)=O)NC(=O)[C@H](CC(C)C)NC(=O)[C@H](Cc4ccccc4)NC(=O)[C@H](C(C)C)NC(=O)[C@@H]4CCN4C(=O)[C@H](C(C)C)NC(=O)[C@@H](CCCNC(=N)N)NC(=O)[C@H](CC(=O)O)NC(=O)[C@H](Cc4ccccc4)NC(=O)CN(C)C3=O)cc2)cc1 [Example 217] ({CH2CO}-[Ala(morpholin-4-yl)][Bip][Bip(4'-NHAc)][Sar]FD[dR]V[Aze]VFLCG-NH2; thioether N-13)

row,Compound,IC50 [nM]
1,CC(C)C[C@@H]1NC(=O)[C@H](CCCNC(=N)N)NC(=O)[C@H](C(C)C)NC(=O)[C@@H]2CCCN2C(=O)[C@H](C(C)C)NC(=O)[C@@H](CCCNC(=N)NCCO)NC(=O)[C@H](CC(=O)O)NC(=O)[C@@H]2CCCN2C(=O)CN(C)C(=O)[C@H](Cc2ccc(-c3ccc(NC(=O)c4nn(C)c5ccccc45)cc3)cc2)NC(=O)[C@H](Cc2ccc(-c3ccccc3)cc2)NC(=O)[C@H](CN2CCOCC2)NC(=O)CSC[C@@H](C(=O)NCC(N)=O)NC1=O [Example 388] ({CH2CO}-[Ala(morpholin-4-yl)][Bip][X5][Sar]PD[X12]VPVRLCG-NH2; thioether N-13),< 50
